In brackets after ≈: the same amount, converted by molar mass.
What was measured:
[1] = system: M. tuberculosis Spec. 192; assay: Tuberculostatic activity, Microplate Alamar Blue Assay (MIC); assay type: cell-based; conditions: Mycobacterium tuberculosis, MABA, read-out: MIC M. tuberculosis Spec. 192 (sensitive to tuberculostatics)
M. tuberculosis H37Rv = assay: as above; assay type: cell-based, Mycobacterium tuberculosis; conditions: Mycobacterium tuberculosis, H37RV; MABA; read-out: MIC M. tuberculosis H37Rv
[2] = system: Staphylococci (standard strains); assay: MIC, standard Gram-positive strains as a panel; assay type: cell-based, S. aureus, S. epidermidis; conditions: standard Gram-positive strains of Table 1; read-out: MIC toward standard Staphylococci (range over strains)
[3] = MTT assay, cytotoxic activity; assay type: cell-based; conditions: human, HaCaT cells (immortal keratinocytes); MTT, 72 h, normal cell line; read-out: IC50 HaCaT
Procedure: (§1) Cells were seeded in 6 mL medium in a tissue culture flask (50 mL) in a 37 °C/5% CO2 humidified incubator. […] MTT analysis was performed according to a previous study.[59] Untreated cells were used as controls. Cell absorbance results were inserted into the formula for the relative MTT level (%). It allows to calculate the viability of cells under the influence of the tested compounds. Cell viability was expressed as the percentage of MTT reduction in cells treated with tested compounds compared to the control sample. The relative MTT level was calculated using the formula [100%] = A/B × 100% where A—the test sample absorbance and B—the control sample absorbance.

P. aeruginosa 659 = assay: MIC, twofold microdilution, clinical strain; assay type: cell-based; conditions: Pseudomonas aeruginosa, 18 h
[4] = system: S. epidermidis ATCC 35984; assay: MIC, twofold microdilution, standard strain; assay type: cell-based; conditions: Staphylococcus epidermidis, ATCC35984, 18 h
E. coli ATCC 25922 = assay: MIC, twofold microdilution, standard strain; assay type: cell-based, Escherichia coli; conditions: Escherichia coli, ATCC25922; standard strain, 18 h
P. aeruginosa ATCC 15442 = assay: MIC, twofold microdilution, standard strain; assay type: cell-based, Pseudomonas aeruginosa; conditions: Pseudomonas aeruginosa, ATCC15442; standard strain, 18 h
K. pneumoniae 510 = assay: MIC, twofold microdilution, clinical strain; assay type: cell-based, Klebsiella pneumoniae; conditions: Klebsiella pneumoniae, 510; clinical strain, 18 h
S. aureus 5595 = assay: MIC, twofold microdilution, clinical strain; assay type: cell-based; conditions: Staphylococcus aureus, 18 h
S. epidermidis 4341 = assay: MIC, twofold microdilution, clinical strain; assay type: cell-based; conditions: Staphylococcus epidermidis, 18 h
E. coli 600 = assay: MIC, twofold microdilution, clinical strain; assay type: cell-based, Escherichia coli; conditions: Escherichia coli, 600, 18 h
S. epidermidis 5253 = assay: MIC, twofold microdilution, clinical strain; assay type: cell-based, Staphylococcus epidermidis; conditions: for MIC: Staphylococcus epidermidis, 5253, 18 h
S. aureus T5591 = assay: MIC, twofold microdilution, clinical strain; assay type: cell-based, Staphylococcus aureus; conditions: Staphylococcus aureus, T5591, 18 h
S. pasteuri KR 4358 = assay: MIC, twofold microdilution, clinical strain; assay type: cell-based; conditions: Staphylococcus pasteuri, KR4358, 18 h
S. aureus ATCC 25923 = assay: MIC, twofold microdilution, standard strain; assay type: cell-based; conditions: Staphylococcus aureus, ATCC25923, 18 h
K. pneumoniae 28 = assay: MIC, twofold microdilution, clinical strain; assay type: cell-based; conditions: Klebsiella pneumoniae, 18 h
[5] = system: S. epidermidis ATCC 12228; assay: MIC, twofold microdilution, standard strain; assay type: cell-based; conditions: Staphylococcus epidermidis, ATCC12228, 18 h
PC3 cells = assay: MTT assay, cytotoxic activity; assay type: cell-based, human; conditions: Homo sapiens, PC-3, 72 h, MTT, 72 h
Procedure: as §1, with “Metastatic prostate cancer (PC3) and human immortal keratinocyte (HaCaT) cell lines were purchased from the American Type Culture Collection (ATCC, Rockville, MD, USA) and cultured in MEM (minimal essential medium, Thermo Sci, USA), RPMI 1640 (Roswell Park Memorial Institute, Biowest SAS, France), and DMEM (Dulbecco’s Modified Eagle’s Medium, Biowest SAS, France). Cells” for “Cells”

S. aureus ATCC 29213 = assay: MIC, twofold microdilution, standard strain; assay type: cell-based; conditions: Staphylococcus aureus, ATCC29213, 18 h
S. aureus T5595 = assay: MIC, twofold microdilution, clinical strain; assay type: cell-based, Staphylococcus aureus; conditions: Staphylococcus aureus, T5595, 18 h
S. epidermidis KR4243/1 = assay: MIC, twofold microdilution, clinical strain; assay type: cell-based; conditions: Staphylococcus epidermidis, 18 h
E. coli 520 = assay: MIC, twofold microdilution, clinical strain; assay type: cell-based; conditions: Escherichia coli, 18 h
S. aureus 180 = assay: MIC, twofold microdilution, clinical strain; assay type: cell-based; conditions: Staphylococcus aureus, 18 h
E. cloacae 8 = assay: MIC, twofold microdilution, clinical strain; assay type: cell-based, Escherichia cloacae; conditions: Enterobacter cloacae, 8; clinical strain, 18 h
S. aureus NCTC 4163 = assay: MIC, twofold microdilution, standard strain; assay type: cell-based; conditions: Staphylococcus aureus, NCTC4163, 18 h
S. aureus ATCC 6538 = assay: MIC, twofold microdilution, standard strain; assay type: cell-based, Staphylococcus aureus; conditions: Staphylococcus aureus, ATCC6538; standard strain, 18 h
P. aeruginosa 37 = assay: MIC, twofold microdilution, clinical strain; assay type: cell-based; conditions: Pseudomonas aeruginosa, 18 h
E. coli 951 = assay: MIC, twofold microdilution, clinical strain; assay type: cell-based; conditions: Escherichia coli, 18 h

| SMILES | MIC [1] | MIC (M. tuberculosis H37Rv) | IC50 at 72 h [3] | MIC (P. aeruginosa 659) | MIC [4] | MIC (E. coli ATCC 25922) | MIC (P. aeruginosa ATCC 15442) | MIC (K. pneumoniae 510) | MIC (S. aureus 5595) | MIC (S. epidermidis 4341) | MIC (E. coli 600) | MIC (S. epidermidis 5253) | MIC (S. aureus T5591) | MIC (S. pasteuri KR 4358) | MIC (S. aureus ATCC 25923) | MIC (K. pneumoniae 28) | MIC [5] | IC50 (PC3 cells) | MIC (S. aureus ATCC 29213) | MIC (S. aureus T5595) | also measured |
| --- | --- | --- | --- | --- | --- | --- | --- | --- | --- | --- | --- | --- | --- | --- | --- | --- | --- | --- | --- | --- | --- |
| [H]/N=C(/N)N[C@H]1[C@H](O)[C@@H](O)[C@H](O[C@@H]2O[C@@H](C)[C@](O)(C=O)[C@H]2O[C@@H]2O[C@@H](CO)[C@H](O)[C@@H](O)[C@@H]2NC)[C@@H](N/C(N)=N\[H])[C@@H]1O [streptomycin (SM), streptomycin, reference compound] | 1 µg/mL (≈ 1.72 µM) | 1 µg/mL (≈ 1.72 µM) | – | – | – | – | – | – | – | – | – | – | – | – | – | – | – | – | – | – | – |
| O=C(O)c1cn(C2CC2)c2cc(N3CCN(CC(=O)N4CCN(c5cc6c(cc5F)c(=O)c(C(=O)O)cn6C5CC5)CC4)CC3)c(F)cc2c1=O [Compound 17, CP–Acetyl–CP Dimer] | 32 µg/mL (≈ 45.5 µM) | 32 µg/mL (≈ 45.5 µM) | 41.3 ± 5.2 µM | > 25.6 µg/mL | 0.4 µg/mL (≈ 0.569 µM) | 6.4 µg/mL (≈ 9.11 µM) | > 25.6 µg/mL | > 25.6 µg/mL | 0.4 µg/mL (≈ 0.569 µM) | 25.6 µg/mL (≈ 36.4 µM) | 12.8 µg/mL (≈ 18.2 µM) | 12.8 to 25.6 µg/mL (≈ 18.2 to 36.4 µM) | 1.6 µg/mL (≈ 2.28 µM) | 1.6 µg/mL (≈ 2.28 µM) | 1.6 µg/mL (≈ 2.28 µM) | > 25.6 µg/mL | 0.2 µg/mL (≈ 0.285 µM) | 88.4 ± 10.6 µM | 0.8 µg/mL (≈ 1.14 µM) | 0.8 µg/mL (≈ 1.14 µM) | MIC [2]: 0.2 to 1.6 µg/mL (≈ 0.285 to 2.28 µM); MIC S. epidermidis 5253 (S. epidermidis 5253; 18 h): 25.6 µg/mL (≈ 36.4 µM); MIC (S. epidermidis KR4243/1): 0.2 µg/mL (≈ 0.285 µM); MIC (E. coli 520): 3.2 µg/mL (≈ 4.55 µM); MIC (S. aureus 180): 1.6 µg/mL (≈ 2.28 µM); MIC (E. cloacae 8): 25.6 µg/mL (≈ 36.4 µM); MIC (S. aureus NCTC 4163): 0.4 µg/mL (≈ 0.569 µM); MIC (S. aureus ATCC 6538): 0.2 µg/mL (≈ 0.285 µM); MIC (P. aeruginosa 37): > 25.6 µg/mL; MIC (E. coli 951): > 25.6 µg/mL |
| CO[C@H]1/C=C/O[C@@]2(C)Oc3c(C)c(O)c4c(O)c(c(/C=N/N5CCN(C)CC5)c(O)c4c3C2=O)NC(=O)/C(C)=C\C=C\[C@H](C)[C@H](O)[C@@H](C)[C@@H](O)[C@@H](C)[C@H](OC(C)=O)[C@@H]1C [rifampicin (RMP), rifampicin, reference compound] | 1 µg/mL (≈ 1.22 µM) | 1 µg/mL (≈ 1.22 µM) | – | – | – | – | – | – | – | – | – | – | – | – | – | – | – | – | – | – | – |
| O=C(O)c1cn(C2CC2)c2cc(N3CCN(CCCCCC(=O)N4CCN(c5cc6c(cc5F)c(=O)c(C(=O)O)cn6C5CC5)CC4)CC3)c(F)cc2c1=O [Compound 20, CP–Hexanoyl–CP Dimer] | 16 µg/mL (≈ 21.1 µM) | 32 µg/mL (≈ 42.2 µM) | 89.5 ± 5.9 µM | > 25.6 µg/mL | 1.6 µg/mL (≈ 2.11 µM) | 6.4 µg/mL (≈ 8.43 µM) | > 25.6 µg/mL | > 25.6 µg/mL | 1 µg/mL (≈ 1.32 µM) | > 25.6 µg/mL | 12.8 µg/mL (≈ 16.9 µM) | > 25.6 µg/mL | 0.8 µg/mL (≈ 1.05 µM) | 0.8 µg/mL (≈ 1.05 µM) | 1.6 µg/mL (≈ 2.11 µM) | > 25.6 µg/mL | 1.6 µg/mL (≈ 2.11 µM) | 69.9 ± 7.2 µM | 1.6 µg/mL (≈ 2.11 µM) | 0.8 µg/mL (≈ 1.05 µM) | MIC (S. epidermidis KR4243/1): 0.8 µg/mL (≈ 1.05 µM); MIC (E. coli 520): 12.8 µg/mL (≈ 16.9 µM); MIC (S. aureus 180): 1 µg/mL (≈ 1.32 µM); MIC (E. cloacae 8): > 25.6 µg/mL; MIC (S. aureus NCTC 4163): 1.6 µg/mL (≈ 2.11 µM); MIC (S. aureus ATCC 6538): 1.6 µg/mL (≈ 2.11 µM); MIC (P. aeruginosa 37): > 25.6 µg/mL; MIC (E. coli 951): > 25.6 µg/mL |
| CC[C@@H](CO)NCCN[C@@H](CC)CO [ethambutol(EMB), ethambutol, reference compound] | 2 µg/mL (≈ 9.79 µM) | 2 µg/mL (≈ 9.79 µM) | – | – | – | – | – | – | – | – | – | – | – | – | – | – | – | – | – | – | – |
